Data reported in patent publication US8460718B2, “Synergistic compositions and methods” (LycoRed Ltd., priority 2011, dated 2013).

Columns and labels:
[1] = tested on: LNCaP, human androgen dependent prostate cancer cells; assay: LNCaP cell proliferation, [3H]thymidine incorporation assay; assay type: cell-based; conditions: LNCaP cells stimulated by 1 nM DHT, treated 3 days; for cell growth inhibition (thymidine incorporation), phytosterol alone: phytosterol alone 0-50 μM
Protocol: In these experiments, LNCaP cells were preincubated for 24 hours in 0.5% serum and then growth (quantified by measuring thymidine incorporation) was stimulated by 1 nM DHT. Stimulated cells were treated for 3 days with the indicated concentration of the phytosterols alone, or in combination with 0.4 μM lycopene. Data presented are the mean±SE of 2-3 independent experiments performed in quadruplicates.
Cell culture and cell proliferation assay: LNCaP, human androgen dependent prostate cancer cells, were purchased from American Type Culture Collection (Rockwell, Md.). Cells were grown in RPMI1640 containing 0.6 μg/ml insulin. All culture media were supplemented with L-glutamine (2 mM), penicillin (100 U/ml), streptomycin (0.1 mg/ml), nystatin (12.5 μg/ml), and 10% FCS. Cells were seeded in medium containing 3% FCS or 3% DCC phenol red free medium and 10 mM HEPES onto 96- and 6-multiwell plates (4-7×10^3 and 1.7×10^5 cells/well, respectively). One day later, the medium was changed to 0.5% FCS or 0% medium for an additional one day of incubation. Then the medium was changed to one containing the micronutrients (phytosterols, carotenoids, phospholipids, etc.) at the indicated concentrations and incubation was continued for 1-3 days. In order to assure that the agent was continuously present during prolonged incubation, the medium was replaced daily with one containing fresh carotenoids. Lycopene was dissolved in tetrahydrofuran at a concentration of 2 mM and stored at −20° C. Immediately before the experiment, the stock solution was added to the cell culture medium. The final concentration of lycopene in the medium was measured by spectrophotometry after extraction in 2-propanol and n-hexane:dichloromethane [3H]thymidine incorporation assay was performed in 96-multiwell plates. Cells were incubated with 1.25-2.50 uCi/well of [3H]thymidine (specific radioactivity 5 mCi/mmol in μCi/well) for one to four hours. The nucleotide incorporation was stopped by addition of unlabeled thymidine (0.5 μmol). The cells were then trypsinized and collected on a glass-fiber filter using a cell harvester (Inotech). Radioactivity was determined by a radioactive image analyzer (BAS 1000, Fuji).
All procedures were performed under dim light in order to prevent carotenoid degradation.
FIGS. 1A-1E. LNCaP cell were preincubated for 24 hours in 0.5% serum and then growth (thymidine incorporation) was stimulated by 1 nM DHT. Stimulated cells were treated for 3 days with the indicated concentrations of the phytosterols alone, or in combination with 0.4 μM Lycopene. Data presented are the mean±SE of 2-3 independent experiments performed in quadruplicates.

[2] = tested on: MDA-MB-231 human breast cancer; conditions: MDA-MB-231, 16 μM; cited from earlier work
[3] = in animals; cited from earlier work
[4] = in vivo; cited from earlier work
HT-29 human colon cancer = conditions: HT-29, 16 μM; cited from earlier work
[5] = tested on: LNCaP human prostate cancer; conditions: 16 μM; cited from earlier work
[6] = tested on: MCF-7 human breast cancer; conditions: MCF-7, 0.001 to 150 μM; cited from earlier work
[7] = tested on: phorbol esters (PMA)-stimulated macrophages (RAW 264.7 cells); conditions: cited from earlier work
[8] = RAW 264.7, effects 3-6 hours after preincubation

## CC(C)[C@H](C)CC[C@@H](C)[C@H]1CC[C@H]2[C@@H]3CC=C4C[C@@H](O)CC[C@]4(C)[C@H]3CC[C@]12C [Campesterol]
[1]
  cell growth inhibition (thymidine incorporation), phytosterol alone: did not have any effect on cell growth inhibition
[2]
  growth: unchanged
[3]
  intestinal absorption: better absorbed than β-sitosterol

## CC[C@H](/C=C/[C@@H](C)[C@H]1CC[C@H]2[C@@H]3CC=C4C[C@@H](O)CC[C@]4(C)[C@H]3CC[C@]12C)C(C)C [Stigmasterol]
[1]
  cell growth inhibition (thymidine incorporation), phytosterol alone: did not have any effect on cell growth inhibition
[3]
  intestinal absorption: only absorbed minimally

## CC(C)CCC[C@@H](C)[C@H]1CC[C@H]2[C@@H]3CC=C4C[C@@H](O)CC[C@]4(C)[C@H]3CC[C@]12C [cholesterol, reference compound]
[2]
  growth: unchanged
[4]
  absorption: 35-70%

## CC(C)=CCC/C(C)=C/C=C/C(C)=C/C=C/C(C)=C/C=C/C=C(C)/C=C/C=C(C)/C=C/C=C(\C)CCC=C(C)C [lycopene]
[1]; 0.4 μM lycopene alone
  cell growth inhibition (thymidine incorporation), lycopene alone: did not inhibit proliferation

## CC[C@H](CC[C@@H](C)[C@H]1CC[C@H]2[C@@H]3CC=C4C[C@@H](O)CC[C@]4(C)[C@H]3CC[C@]12C)C(C)C [β-sitosterol]
[1]
  cell growth inhibition (thymidine incorporation), phytosterol alone: inhibited prostate cancer cell proliferation in a dose dependent manner
HT-29 human colon cancer
  growth: inhibition
[5]
  PSA levels: reduced PSA
  growth: inhibition;
[2]
  growth: inhibition
[6]
  growth: increase
[7]; [8]
  H2O2 production induced by PMA: decrease
  O2(−) production induced by PMA: decrease
[7]; RAW 264.7
  NO release induced by PMA: reduced
  inducible nitric oxide synthase (iNOS) levels: impairment
